For series [1], the system named is MDR Salmonella enterica serovar I 4,[5],12:i:- strain USDA15WA-1 (SX238). Put plainly: Growth curve assay (automated reader, OD600) with isolate SX238. Type of series: cell-based. How it is done:
(§1) Overnight cultures of a MDR Salmonella outbreak isolate (SX238) and one non-MDR Salmonella isolate (SB377) were diluted 1:1000 in LB broth to obtain approximately 1 × 10^6 colony forming units per milliliter (CFU/mL). One hundred microliters of each diluted culture were transferred into honeycomb® 100-well plates (~ 1 × 10^5 CFU/well) (Growth Curves USA, Piscataway, NJ). Bovine NK-lysin peptides (NK1, NK2A, NK2B, and NK2C) were added at the final peptide concentrations of 20, 10, 5, 3.5, 2 µM in PBS (total volume = 20 µL) with a final bacterial-peptide volume of 120 µL/well. The plates were covered with lids and placed in an automated growth curve reader (Bioscreen C; Growth Curves USA, Piscataway, NJ) which was programmed for continuous shaking at 37 °C, and optical density readings at 600 nm (OD600) were recorded every hour for 24 h. […] The optical density data were analyzed, and growth curve graphs for each isolate were generated using MS Excel. […] Twenty-four-hour growth curve assays for Salmonella isolate SX238 were repeated at different bacterial CFU (~ 1 × 10^5, 1 × 10^6, 1 × 10^7, and 1 × 10^8 CFU/mL) with NK2A (5 µM and 10 µM). Sc-NK2A was included as a control for the assay.

Series [2] has as its system Salmonella enterica serovar Typhimurium isolate UK-1 (SB377, non-MDR). Description: Growth curve assay (automated reader, OD600) with isolate SB377. The class given is cell-based. To be noted: LB broth, ~1 × 10^5 CFU/well, 37 °C, OD600 every hour for 24 h; tested 2-20 µM. Here is the method: as §1
For series [3], the system named is MDR Salmonella enterica serovar Typhimurium DT193 strain 1434 (SX231). Description: Growth curve assay (automated reader, OD600) with isolate SX231. To be noted: LB broth, 10^5 CFU/well, OD600 over 24 h. The class given is cell-based.
Series [4] has as its system MDR Salmonella enterica serovar Heidelberg (SB395). Put plainly: Growth curve assay (automated reader, OD600) with isolate SB395. Type of series: cell-based. The conditions noted are these: LB broth, 10^5 CFU/well, OD600 over 24 h.
Series [5] has as its system Salmonella isolates (MDR and non-MDR). Put plainly: Growth curve assay, statements over all Salmonella isolates. The class given is cell-based. Here is the method:
as §1

In another series the test system is Swiss-Webster mice. Put plainly: Mouse study of in vivo cytotoxic effects. The conditions noted are these: single intraperitoneal dose 100 µg (~ 4 mg/kg) in PBS, female Swiss-Webster mice, 5 per cage, 2-week observation. How it is done:
To determine whether NK-lysin peptides show in vivo cytotoxic effects, a mouse study was conducted. Briefly, thirty 5–6 weeks old female Swiss-Webster mice (Envigo, Indianapolis, IN) were housed in groups in six individual cages (5 mice per cage) in ABSL2 facilities with ad libitum access to food and water in a 12-h light:dark cycle. After 1 week of acclimation, mice were intraperitoneally injected with a single dose of 100 µg of NK-lysin peptides (NK1, NK2A, NK2B, NK2C, or Sc-NK2A, ~ 4 mg/kg of body weight) in PBS (1 mL). Mice injected with PBS (1 mL) served as a negative control for the study. Mice were daily observed for any signs of toxicity and were euthanized 2 weeks post peptide administration.

A further series has as its system Salmonella SX238. Put plainly: LIVE/DEAD BacLight staining, confocal laser scanning microscopy. The conditions noted are these: 5 µM peptide. Type of series: cell-based, Salmonella enterica serovar I 4,[5],12:i:-. How it is done:
The viabilities of bacteria following incubation with NK2A and Sc-NK2A were determined using culture-independent (function of the membrane integrity of the bacteria) staining technique by using LIVE/DEAD™ BacLight™ bacterial viability kit (for microscopy) as described previously. Bacteria in each treatment was visualized using a Nikon A1R + laser scanning confocal microscope (Nikon Instruments, Melville, NY) as described previously. Images were obtained using plan Apo 60 × objective lens (oil) at numerical aperture 1.4. Final figures were prepared using Adobe Photoshop Elements 11.

Series [6] deals with Salmonella SX238 outer- and inner-membranes. Description: Transmission electron microscopy of peptide-treated bacteria. Type of series: cell-based, Salmonella enterica serovar I 4,[5],12:i:-. The conditions noted are these: 20 µM peptide, 1 h at 37 °C, ~1 × 10^7 CFU/well in PBS. How it is done:
Morphological changes of bacteria following incubation with NK2A and Sc-NK2A peptides were studied by TEM. An overnight culture of Salmonella (isolate SX238) was centrifuged and resuspended in PBS. One hundred microliters of bacterial suspension were placed in a Honeycomb plate (~ 1 × 10^7 CFU/well) and NK2A, Sc-NK2A (20 µM), and PBS were added and incubated at 37 °C with continuous shaking for 1 h. The bacterial suspensions were mixed with an equal volume of 3% glutaraldehyde in 0.1 M cacodylate buffer (pH 7.4) and processed for TEM as described before. Sections were examined with a FEI Tecnai G2 Biotwin (FEI Co., Hillboro, OR) TEM and images were taken with Advanced Microscopy Technologies (AMT Inc., Danvers, […]) imaging camera.

Series [7] concerns MDR Salmonella outbreak isolate SX238 cytoplasmic membrane. Description: Propidium iodide (PI) uptake assay. Type of series: cell-based, Salmonella enterica serovar I 4,[5],12:i:-. To be noted: 5 µM peptide, 30 min, ~1 × 10^7 CFU/well in PBS, 3 µM PI. How it is done:
The kinetics of NK2A-induced damage to Salmonella cell membranes were evaluated using PI uptake assay as described previously. Briefly, an overnight culture of MDR Salmonella outbreak isolate SX238 was centrifuged, washed with PBS, and resuspended in PBS. Ninety microliters of bacterial suspension was transferred to a 96-well opaque plate (~ 1 × 10^7 CFU/well), mixed with 10 µL of PI (final concentration = 3 µM) and incubated at 37 °C for 5 min. PBS, polymyxin B (2, 4, 25, 50 and 100 µg/mL), NK2A or Sc-NK2A (both at 2 and 5 µM) were added and PI fluorescent intensities in each well was continuously measured (15 s intervals, flex mode) using a FlexStation 3 multi-mode (fluorescent) microplate reader (Molecular Devices LLC., San Jose, CA) for up to 6 h. The excitation and emission wavelengths for PI was set up at 530 nm and 620 nm, respectively.

Series [8] relates to Salmonella enterica serotype Typhimurium LPS; growth of isolate SX238. Description: NK2A-LPS binding by growth curve assay after LPS preincubation. The class given is cell-based. Here is the method:
The binding of NK2A to Salmonella LPS was studied by growth curve assay and TEM. Five micromolar NK2A (~ 2.2 µg/well) was preincubated with different amounts of Salmonella enterica serotype Typhimurium LPS (Sigma; LPS = 0, 0.5, 1.1, 2.2, 4.4, 8.8 µg/well, final volume of LPS and NK2A = 20 µL) at 37 °C in a honeycomb plate with continuous shaking for 30 min. Overnight Salmonella (isolate SX238) culture was diluted to ~ 1 × 10^6 CFU/mL and 100 µL was transferred into wells containing NK2A-LPS and further incubated at 37 °C with continuous shaking for 24 h. The optical density (OD600) data were analyzed, and growth curve graphs were generated.

Peptide text beside a SMILES is read from it. Where only a bound is given, the exact number is not on record here.

Turning to `CC[C@H](C)[C@H](NC(=O)[C@H](CO)NC(=O)[C@H](CCCCN)NC(=O)[C@H](CS)NC(=O)[C@H](CC(C)C)NC(=O)CNC(=O)[C@H](CCCCN)NC(=O)[C@H](CC(C)C)NC(=O)[C@H](CC(C)C)NC(=O)[C@H](CCCNC(=N)N)NC(=O)[C@H](CCSC)NC(=O)[C@H](CCCCN)NC(=O)[C@H](CO)NC(=O)[C@H](CS)NC(=O)[C@H](CCSC)NC(=O)[C@H](CCCCN)NC(=O)[C@H](CO)NC(=O)[C@H](C)NC(=O)[C@@H](NC(=O)[C@H](CCC(=O)O)NC(=O)[C@@H](NC(=O)[C@@H](NC(=O)[C@@H](N)[C@@H](C)O)C(C)C)[C@@H](C)CC)C(C)C)C(=O)N[C@H](C(=O)N[C@@H](CCCCN)C(=O)N[C@@H](CCCNC(=N)N)C(=O)N[C@@H](Cc1ccccc1)C(=O)N[C@@H](CC(C)C)C(=O)N[C@@H](CCCNC(=N)N)C(=O)N[C@@H](CCCNC(=N)N)C(=O)O)[C@@H](C)O` [NK2A] (H-TVIEVASKMCSKMRLLKGLCKSITKRFLRR-OH; N-terminus and C-terminus assumed), in [1] (2 µM peptide, LB broth (Fig. 1a)), the “duration of growth inhibition at 2 µM” value was “up to 8 h”. The “growth inhibition of SX238 at different bacterial CFU” value in series [1] (10 µM peptide, 10^5–7 CFU/mL (10^4–6 CFU/well), 24 h growth period) was “completely inhibited growth”. For the same compound, the “duration of partial growth inhibition at high inoculum” value in series [1] (10 µM peptide, 10^8 CFU/mL (10^7 CFU/well)) is recorded as “up to 9 h”. Moreover, the “peptide concentration at which growth of SB377 was completely inhibited” value in [2] was ≥ 5 µM. Besides, in series [3], the “peptide concentration at which growth of SX231 was inhibited” value is listed as ≥ 5 µM. Moreover, the “peptide concentration at which growth of SB395 was inhibited” value in series [4] is listed as ≥ 5 µM. For the same compound, in [5] (24 h incubation in LB broth, MDR and non-MDR isolates), the “concentrations able to inhibit growth of Salmonella during 24 h” value was in the range of 3.5 to 5 µM. The “final concentration to which three of the four isolates were sensitive” value in series [5] (SX238, SX231, SB395, SB377 at 10^5 CFU/well, the three isolates are not named) stood at 3.5 µM. In addition, the “signs of toxicity or death” value in the series on Swiss-Webster mice is “did not show signs of toxicity or death”. Besides, the “live/dead staining result (SYTO 9 / PI)” value with Salmonella SX238 was “many dead (red) Salmonella SX238 were detected”. Also, the “ultrastructural changes to bacterial membranes” value in series [6] is “extensively damaged outer- and inner-membranes and cytosolic content leakage”. Further, the PI uptake signal entry in series [7] is on record as “rapid PI uptake was observed”. Moreover, the “delayed bacterial growth recovery after LPS preincubation” value in [8] (5 µM (2.2 µg) NK2A preincubated 30 min with 1.1 µg and 2.2 µg LPS) lay in the range of 5 to 10 h. For the same compound, the “effect of LPS preincubation on antimicrobial activity” value in [8] (5 µM (2.2 µg) NK2A preincubated 30 min with 4.4 µg and 8.8 µg LPS) is recorded as “completely inhibited the antimicrobial activity of NK2A”.

The record behind these values is PMC8481502, “Bovine NK-lysin peptides exert potent antimicrobial activity against multidrug-resistant Salmonella outbreak isolates” (Scientific Reports, 2021).
